Experimental data as given in ChEMBL document CHEMBL1201862, “PubChem BioAssay data set” (2004).
Active and inactive are the calls of the source.

Assays:
Fatty acid synthase [1] = biological target: T1, Fatty acid synthase (Homo sapiens, UniProt P49327); assay: inhibition of human FAS-TE enzyme activity – biochemical, endpoint fluorescence intensity, uHTS hits, dose response (AID 624327); assay type: functional;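 further: fluorescence from hydrolysis of an O-methyl fluorescein acyl ester substrate by the enzyme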
T1 sequence (P49327 whole entry): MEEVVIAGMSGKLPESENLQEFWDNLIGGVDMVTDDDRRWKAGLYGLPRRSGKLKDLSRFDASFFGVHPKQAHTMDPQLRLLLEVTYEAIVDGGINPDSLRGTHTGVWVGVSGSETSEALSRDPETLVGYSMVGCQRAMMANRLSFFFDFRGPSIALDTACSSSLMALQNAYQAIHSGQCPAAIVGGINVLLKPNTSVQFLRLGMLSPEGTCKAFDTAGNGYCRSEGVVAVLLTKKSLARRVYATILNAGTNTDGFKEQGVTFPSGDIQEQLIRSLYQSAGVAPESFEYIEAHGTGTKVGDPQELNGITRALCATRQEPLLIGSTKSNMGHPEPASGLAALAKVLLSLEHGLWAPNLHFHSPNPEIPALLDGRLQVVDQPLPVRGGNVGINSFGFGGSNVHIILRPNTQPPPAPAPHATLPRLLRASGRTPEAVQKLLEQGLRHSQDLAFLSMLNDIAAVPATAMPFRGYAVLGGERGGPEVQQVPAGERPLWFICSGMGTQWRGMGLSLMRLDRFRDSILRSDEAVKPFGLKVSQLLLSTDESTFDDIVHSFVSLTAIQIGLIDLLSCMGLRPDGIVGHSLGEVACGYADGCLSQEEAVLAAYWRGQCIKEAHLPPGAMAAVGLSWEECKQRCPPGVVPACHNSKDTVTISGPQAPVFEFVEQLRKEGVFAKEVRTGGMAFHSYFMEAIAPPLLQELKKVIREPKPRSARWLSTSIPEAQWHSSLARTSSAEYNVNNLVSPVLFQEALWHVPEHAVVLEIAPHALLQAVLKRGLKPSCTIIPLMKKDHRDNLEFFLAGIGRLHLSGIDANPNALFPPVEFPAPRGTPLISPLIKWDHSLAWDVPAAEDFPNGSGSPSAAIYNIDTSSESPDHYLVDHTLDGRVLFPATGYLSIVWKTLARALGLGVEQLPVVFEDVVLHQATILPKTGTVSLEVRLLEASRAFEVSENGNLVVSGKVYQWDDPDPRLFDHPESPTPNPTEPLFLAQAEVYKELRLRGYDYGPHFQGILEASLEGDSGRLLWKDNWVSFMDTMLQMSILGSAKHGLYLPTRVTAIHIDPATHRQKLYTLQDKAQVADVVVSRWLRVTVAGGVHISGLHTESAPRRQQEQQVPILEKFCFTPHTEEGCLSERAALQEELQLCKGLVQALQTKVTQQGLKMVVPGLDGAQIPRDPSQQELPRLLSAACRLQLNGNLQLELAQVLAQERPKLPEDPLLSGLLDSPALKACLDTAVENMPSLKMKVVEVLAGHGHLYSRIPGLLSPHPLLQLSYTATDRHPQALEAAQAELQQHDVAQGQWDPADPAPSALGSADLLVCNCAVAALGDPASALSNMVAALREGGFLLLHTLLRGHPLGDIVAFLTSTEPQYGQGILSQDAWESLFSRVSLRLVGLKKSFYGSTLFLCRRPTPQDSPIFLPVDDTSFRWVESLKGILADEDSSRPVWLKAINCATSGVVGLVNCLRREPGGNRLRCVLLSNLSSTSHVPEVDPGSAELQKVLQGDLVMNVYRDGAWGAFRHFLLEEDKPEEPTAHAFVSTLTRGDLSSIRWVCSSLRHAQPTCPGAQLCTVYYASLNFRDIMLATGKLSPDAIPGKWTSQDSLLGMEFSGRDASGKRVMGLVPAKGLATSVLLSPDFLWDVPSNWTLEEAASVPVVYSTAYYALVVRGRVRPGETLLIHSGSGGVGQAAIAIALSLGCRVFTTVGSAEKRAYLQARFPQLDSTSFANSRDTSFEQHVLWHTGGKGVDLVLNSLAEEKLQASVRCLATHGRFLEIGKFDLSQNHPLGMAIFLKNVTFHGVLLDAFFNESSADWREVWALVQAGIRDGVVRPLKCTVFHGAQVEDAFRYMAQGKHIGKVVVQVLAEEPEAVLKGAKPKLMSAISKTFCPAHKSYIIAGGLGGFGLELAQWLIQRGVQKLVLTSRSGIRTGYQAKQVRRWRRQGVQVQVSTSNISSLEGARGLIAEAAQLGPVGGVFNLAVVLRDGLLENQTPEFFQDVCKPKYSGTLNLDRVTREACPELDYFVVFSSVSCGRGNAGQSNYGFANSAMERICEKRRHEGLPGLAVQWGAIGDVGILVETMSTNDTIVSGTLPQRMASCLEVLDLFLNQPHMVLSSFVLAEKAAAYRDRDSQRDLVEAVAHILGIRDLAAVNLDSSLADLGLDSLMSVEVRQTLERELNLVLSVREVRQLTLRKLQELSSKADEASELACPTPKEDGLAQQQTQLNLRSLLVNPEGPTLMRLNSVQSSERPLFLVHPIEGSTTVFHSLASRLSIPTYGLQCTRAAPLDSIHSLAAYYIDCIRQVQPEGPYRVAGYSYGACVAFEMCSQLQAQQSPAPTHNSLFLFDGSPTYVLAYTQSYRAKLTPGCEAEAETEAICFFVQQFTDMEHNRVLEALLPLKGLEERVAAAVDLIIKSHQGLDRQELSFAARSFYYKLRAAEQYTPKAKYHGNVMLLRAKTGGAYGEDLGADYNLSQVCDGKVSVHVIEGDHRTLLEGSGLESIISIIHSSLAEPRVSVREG

Fatty acid synthase [2] = biological target: T1, Fatty acid synthase; assay: inhibition of human FAS-TE enzyme activity – biochemical, kinetic fluorescence intensity, dose response (AID 624326); assay type: functional;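 further: rate of fluorescence rise from hydrolysis of a fluorogenic O-methyl fluorescein ester substrate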
Leucine aminopeptidase = biological target: T2, Leucine aminopeptidase (Plasmodium falciparum 3D7, UniProt Q8IL11); assay: P. falciparum M17LAP inhibitors, primary screen, biochemical, fluorogenic H-Leu-NHMec substrate, 1536-well (AID 1619); assay type: functional
T2 sequence (Q8IL11 whole entry): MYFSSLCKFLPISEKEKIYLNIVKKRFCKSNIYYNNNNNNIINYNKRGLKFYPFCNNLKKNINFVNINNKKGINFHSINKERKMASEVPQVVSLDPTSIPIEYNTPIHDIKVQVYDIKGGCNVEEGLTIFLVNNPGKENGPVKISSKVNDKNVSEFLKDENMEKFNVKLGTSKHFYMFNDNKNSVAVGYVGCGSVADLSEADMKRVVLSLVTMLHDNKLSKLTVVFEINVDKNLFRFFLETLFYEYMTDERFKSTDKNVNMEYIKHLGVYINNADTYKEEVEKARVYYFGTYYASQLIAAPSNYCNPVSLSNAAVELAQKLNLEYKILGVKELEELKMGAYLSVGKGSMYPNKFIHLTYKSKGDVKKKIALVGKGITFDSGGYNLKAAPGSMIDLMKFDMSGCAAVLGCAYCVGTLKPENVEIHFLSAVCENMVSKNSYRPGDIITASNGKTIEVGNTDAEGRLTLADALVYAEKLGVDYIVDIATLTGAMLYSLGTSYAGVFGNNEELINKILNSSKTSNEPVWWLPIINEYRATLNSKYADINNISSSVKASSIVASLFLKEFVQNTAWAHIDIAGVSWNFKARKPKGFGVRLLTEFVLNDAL

Aminopeptidase N = biological target: T3, Aminopeptidase N (Plasmodium falciparum FcB1/Columbia, UniProt O96935); assay: malaria alanyl aminopeptidase activity blockers – biochemical, fluorogenic H-Leu-NHMec substrate, 1536-well (AID 1445); design: species or system Plasmodium falciparum 3D7, 3D7
T3 sequence (O96935 whole entry): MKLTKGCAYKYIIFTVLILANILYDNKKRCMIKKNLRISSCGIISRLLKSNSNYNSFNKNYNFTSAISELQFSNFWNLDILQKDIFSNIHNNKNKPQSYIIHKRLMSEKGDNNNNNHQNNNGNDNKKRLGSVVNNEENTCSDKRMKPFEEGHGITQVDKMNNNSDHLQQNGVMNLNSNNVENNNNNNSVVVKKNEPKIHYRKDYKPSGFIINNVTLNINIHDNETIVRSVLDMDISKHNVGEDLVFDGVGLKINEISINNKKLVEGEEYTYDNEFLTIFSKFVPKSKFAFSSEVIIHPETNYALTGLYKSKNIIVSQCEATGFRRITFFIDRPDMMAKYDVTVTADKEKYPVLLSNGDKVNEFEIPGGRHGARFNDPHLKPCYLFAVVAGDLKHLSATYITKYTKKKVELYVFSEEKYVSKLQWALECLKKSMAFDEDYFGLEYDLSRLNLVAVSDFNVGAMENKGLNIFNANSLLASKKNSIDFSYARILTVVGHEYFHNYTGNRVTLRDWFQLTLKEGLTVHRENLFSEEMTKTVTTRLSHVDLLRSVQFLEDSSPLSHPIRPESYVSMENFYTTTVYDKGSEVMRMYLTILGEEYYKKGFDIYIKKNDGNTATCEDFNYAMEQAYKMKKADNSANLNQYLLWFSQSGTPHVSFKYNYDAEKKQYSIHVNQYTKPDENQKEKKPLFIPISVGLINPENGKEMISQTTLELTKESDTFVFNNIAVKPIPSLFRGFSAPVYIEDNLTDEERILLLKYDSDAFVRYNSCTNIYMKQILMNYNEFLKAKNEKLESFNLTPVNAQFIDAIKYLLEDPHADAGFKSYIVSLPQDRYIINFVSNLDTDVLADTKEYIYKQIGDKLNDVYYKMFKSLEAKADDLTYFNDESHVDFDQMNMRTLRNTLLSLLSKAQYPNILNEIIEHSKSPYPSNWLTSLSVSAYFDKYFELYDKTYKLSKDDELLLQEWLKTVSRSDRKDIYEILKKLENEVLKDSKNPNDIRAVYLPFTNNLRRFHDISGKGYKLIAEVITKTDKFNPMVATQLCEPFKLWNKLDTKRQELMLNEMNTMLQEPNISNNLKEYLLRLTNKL

Cytochrome P450 3A4 = Cytochrome P450 3A4 (Homo sapiens, UniProt P08684);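 further: CYP3A4 tested as one member of a cytochrome P450 panel screen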
Sequence of Cytochrome P450 3A4 (P08684 whole entry): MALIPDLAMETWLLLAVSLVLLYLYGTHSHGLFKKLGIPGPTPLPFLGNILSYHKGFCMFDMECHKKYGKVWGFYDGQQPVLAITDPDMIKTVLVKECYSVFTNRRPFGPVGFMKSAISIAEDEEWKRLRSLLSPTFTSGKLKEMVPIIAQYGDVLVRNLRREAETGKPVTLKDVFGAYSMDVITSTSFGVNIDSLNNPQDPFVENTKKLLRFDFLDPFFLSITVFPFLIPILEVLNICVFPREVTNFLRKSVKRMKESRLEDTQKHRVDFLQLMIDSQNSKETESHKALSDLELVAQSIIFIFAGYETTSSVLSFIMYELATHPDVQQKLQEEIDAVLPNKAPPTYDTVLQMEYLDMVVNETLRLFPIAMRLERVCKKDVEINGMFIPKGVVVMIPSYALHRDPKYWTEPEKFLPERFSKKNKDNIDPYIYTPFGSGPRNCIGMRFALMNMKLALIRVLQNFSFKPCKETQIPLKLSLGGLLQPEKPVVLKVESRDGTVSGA

Cytochrome P450 2C19 = Cytochrome P450 2C19 (Homo sapiens, UniProt P33261); assay: Cytochrome panel assay with activity outcomes. Panel member name: p450-cyp2c19 Compounds with AC50 equal or less than 10 uM are considered active; assay type: functional
Sequence of Cytochrome P450 2C19 (P33261 whole entry): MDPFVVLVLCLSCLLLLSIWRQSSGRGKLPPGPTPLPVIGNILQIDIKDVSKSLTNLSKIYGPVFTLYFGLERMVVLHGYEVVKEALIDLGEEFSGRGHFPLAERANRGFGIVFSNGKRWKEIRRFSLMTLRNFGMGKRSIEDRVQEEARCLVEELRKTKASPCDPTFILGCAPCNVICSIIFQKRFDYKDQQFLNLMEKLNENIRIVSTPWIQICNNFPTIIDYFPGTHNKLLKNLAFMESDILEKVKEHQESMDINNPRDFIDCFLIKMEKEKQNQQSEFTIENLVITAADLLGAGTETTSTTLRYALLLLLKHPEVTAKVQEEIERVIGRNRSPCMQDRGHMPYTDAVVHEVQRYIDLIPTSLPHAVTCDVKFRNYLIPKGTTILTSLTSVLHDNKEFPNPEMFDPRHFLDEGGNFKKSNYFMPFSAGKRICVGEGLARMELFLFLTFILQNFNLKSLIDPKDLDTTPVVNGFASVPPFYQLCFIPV

[3] = biological target: T4, Short transient receptor potential channel 4 (Mus musculus, UniProt Q9QUQ5); assay: block of DAMGO-driven TRPC4 calcium entry – cell-based, HEK293 TRPC4/mu-opioid, Fluo-4 calcium, dose response (AID 434942); assay type: functional;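 further: potency of inhibitors blocking the TRPC4 calcium response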
T4 sequence (Q9QUQ5 whole entry): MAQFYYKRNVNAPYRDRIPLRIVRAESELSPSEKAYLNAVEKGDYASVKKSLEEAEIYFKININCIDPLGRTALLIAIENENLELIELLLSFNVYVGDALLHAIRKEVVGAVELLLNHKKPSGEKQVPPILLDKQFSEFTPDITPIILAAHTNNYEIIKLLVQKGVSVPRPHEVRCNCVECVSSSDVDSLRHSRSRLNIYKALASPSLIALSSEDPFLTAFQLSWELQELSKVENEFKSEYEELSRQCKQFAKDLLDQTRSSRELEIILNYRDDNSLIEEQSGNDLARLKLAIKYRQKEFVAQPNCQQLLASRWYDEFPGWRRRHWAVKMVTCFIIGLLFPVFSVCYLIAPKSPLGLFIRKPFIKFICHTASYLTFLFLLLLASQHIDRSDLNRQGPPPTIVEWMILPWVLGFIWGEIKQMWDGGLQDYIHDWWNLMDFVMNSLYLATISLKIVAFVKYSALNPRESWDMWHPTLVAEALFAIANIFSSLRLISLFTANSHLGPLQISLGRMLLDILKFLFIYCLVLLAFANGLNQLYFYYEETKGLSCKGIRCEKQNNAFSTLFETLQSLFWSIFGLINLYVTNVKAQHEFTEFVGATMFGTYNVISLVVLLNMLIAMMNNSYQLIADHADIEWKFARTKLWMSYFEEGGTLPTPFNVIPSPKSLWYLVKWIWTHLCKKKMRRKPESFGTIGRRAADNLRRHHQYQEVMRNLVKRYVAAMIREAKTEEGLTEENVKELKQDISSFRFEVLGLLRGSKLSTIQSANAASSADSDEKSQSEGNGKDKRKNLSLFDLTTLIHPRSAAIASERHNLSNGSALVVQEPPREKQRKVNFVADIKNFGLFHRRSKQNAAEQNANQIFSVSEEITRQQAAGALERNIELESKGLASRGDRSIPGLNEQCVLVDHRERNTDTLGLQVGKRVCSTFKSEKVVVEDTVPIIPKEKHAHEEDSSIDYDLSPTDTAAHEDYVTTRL

cells [4] = assay type: functional, cell-based
cells [5] = assay type: functional, cell-based; remark: listed apart in the source
[6] = microbe, parasite or virus in culture; assay type: functional; conditions: Mycobacterium tuberculosis
Cytochrome P450 2D6 = Cytochrome P450 2D6 (Homo sapiens, UniProt P10635);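 further: CYP2D6 member of a cytochrome P450 panel assay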
Sequence of Cytochrome P450 2D6 (P10635 whole entry): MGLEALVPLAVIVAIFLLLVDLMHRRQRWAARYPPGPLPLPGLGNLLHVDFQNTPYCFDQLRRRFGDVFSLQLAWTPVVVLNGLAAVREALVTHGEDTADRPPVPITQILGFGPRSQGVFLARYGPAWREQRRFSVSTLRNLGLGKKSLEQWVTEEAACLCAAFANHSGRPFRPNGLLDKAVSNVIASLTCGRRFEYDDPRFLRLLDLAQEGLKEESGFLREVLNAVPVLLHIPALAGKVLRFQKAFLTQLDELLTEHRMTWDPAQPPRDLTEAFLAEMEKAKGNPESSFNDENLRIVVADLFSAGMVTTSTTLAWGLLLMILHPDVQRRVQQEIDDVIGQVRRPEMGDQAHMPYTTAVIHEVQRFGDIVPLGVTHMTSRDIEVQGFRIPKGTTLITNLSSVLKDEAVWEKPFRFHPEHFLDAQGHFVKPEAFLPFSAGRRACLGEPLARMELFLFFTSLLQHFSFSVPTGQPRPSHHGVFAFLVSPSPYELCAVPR

[7] = Trypanosoma cruzi growth suppression in host cells – NIH3T3 host cells, beta-gal luminescence, confirmation (AID 2044); assay type: functional, cell-based;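 further: intracellular parasites grown in NIH/3T3 mouse fibroblasts as host cells; luminescent beta-galactosidase reporter signal from transgenic T. cruzi replicating inside host cells; inhibitors lower the luminescence signal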
[8] = NIH3T3 cell viability loss – ATP luminescence, mouse fibroblasts, counter-screen, dose response (AID 2010); assay type: functional, cell-based;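 further: cells exposed to compound for about 90 hours before reading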
INS1 = assay: INS-1E survival protection against cytokine death – cell-based, luminescence, retest, dose response (AID 449756); assay type: functional; conditions: Rattus norvegicus;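 further: cell death triggered by IL-1 beta plus TNF-alpha plus IFN-gamma mixture; protective hits raise ATP signal compared with cytokine alone wells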
P388 = assay: cells; assay type: functional; conditions: Mus musculus
P388/ADR = assay: cells; assay type: functional; conditions: Mus musculus
SN12K1 = assay: cells; assay type: functional; conditions: Homo sapiens
[9] = biological target: Heat shock protein HSP 90-alpha (Homo sapiens, UniProt P07900); assay type: functional, organism-based

CN(C)C=O.O=C(COc1cccc(Cl)c1)Nc1nc(-c2ccc(S(=O)(=O)N3CCOCC3)cc2)cs1
IC50 (Fatty acid synthase [1]): 4.49 µM (active)
IC50 (Fatty acid synthase [2]): 5.53 µM (active)

O=C(CN1C(=O)C2C3CC(C(Br)C3Br)C2C1=O)N1CCOCC1 (stereo not given)
IC50 (Leucine aminopeptidase): 47.5 µM (active)

CCn1c(SCC(=O)Nc2ncc(C(F)(F)F)cc2Cl)nnc1-c1ccccc1
IC50 (Fatty acid synthase [1]): 5.96 µM (active)
IC50 (Fatty acid synthase [2]): 4.08 µM (active)

O=C(O)c1ccc(/C=C/c2ccc3cccc(O)c3n2)cc1
IC50 (Aminopeptidase N): 13 µM (active)
IC50 (Leucine aminopeptidase): 55.5 µM (active)

O=c1cc(CSc2ccccc2)[nH]c(=S)[nH]1
AC50 (Cytochrome P450 3A4): 28.2 µM (inconclusive)
AC50 (Cytochrome P450 2C19): inconclusive
IC50 (Leucine aminopeptidase): 12.5 µM (active)

CC1=NNC(=O)C1CCC(=O)N/N=C/c1ccc(Cl)cc1 (stereo not given)
IC50 (Leucine aminopeptidase): 52.6 µM (active)

COc1ccc(SC[C@H](Cc2ccccc2)N2CCN(C)CCC2=O)cc1
EC50 [3]: 1.33 µM (active)

O=C(Cn1nc2ccccc2n1)N/N=C/c1cc(Cl)cc([N+](=O)[O-])c1O
IC50 (Aminopeptidase N): 45.2 µM (active)
IC50 (Fatty acid synthase [1]): 8.31 µM (active)
IC50 (Fatty acid synthase [2]): 6.5 µM (active)

CCOC(=O)c1c(S(=O)(=O)N2CCC(C)CC2)c(C)n(C)c1C
EC50 (cells [4]): > 350 µM (not active)
EC50 (cells [5]): > 350 µM (not active)

CCCCOC(=O)NS(=O)(=O)c1sc(CC(C)C)cc1-c1ccc(Cn2c(CC)nc3c(C)cc(C)nc32)cc1
CC50 [6]: 20.3 µM (active)
AC50 (Cytochrome P450 2D6): 15.8 µM (inconclusive)
AC50 (Cytochrome P450 2C19; read-out: AC50): 15.8 µM (inconclusive)

COc1ccc(Nc2nnc(SCC(=O)N3CCCC3)s2)cc1
IC50 (Leucine aminopeptidase): 10.1 µM (active)

CCCOc1ccc(C(=O)NC(=S)NCc2cccnc2)cc1
CC50 [6]: > 40 µM (active)

N#Cc1cc2nc(O)c(O)nc2cc1[N+](=O)[O-]
IC50 (Fatty acid synthase [1]): 19.6 µM (active)
IC50 (Fatty acid synthase [2]): 14.8 µM (active)

CCn1cc(C(=O)NCc2ccc(C)cc2)c(=O)c2cc(S(=O)(=O)N(C)C)ccc21
IC50 (Fatty acid synthase [1]): 11.4 µM (active)
IC50 (Fatty acid synthase [2]): 11.1 µM (active)

c1ccc2c(c1)CCN(c1nc3cc4c(cc3s1)OCCO4)C2
CC50 [6]: > 40 µM (active)

CC1CCCN(CCCN2C(=O)C3C(C(=O)Nc4ccc(Cl)cc4)C4C=CC3(O4)C2C(=O)NC2CCCCC2)C1 (stereo not given)
EC50 [3]: 0.335 µM (active)

O=C(O)C1CC=CCC1C(=O)Nc1cccc(F)c1 (stereo not given)
IC50 (Leucine aminopeptidase): 14.6 µM (active)

Cc1cccc(C2Nc3ccccc3C(=O)N2NC(=O)c2ccc([N+](=O)[O-])cc2)n1 (stereo not given)
IC50 (Fatty acid synthase [1]): 10.4 µM (active)
IC50 (Fatty acid synthase [2]): 12.8 µM (active)

O=C(NCCCN1CCN(c2ccccc2F)CC1)Nc1ccccc1[N+](=O)[O-]
EC50 (cells [4]): > 350 µM (not active)
EC50 (cells [5]): > 350 µM (not active)

Cc1ccc(C(CNS(=O)(=O)c2ccc([N+](=O)[O-])cc2)N2CCN(C)CC2)cc1 (stereo not given)
EC50 [7]: 1.65 µM (active)
EC50 [3]: 0.0093 µM (active)
EC50 [8]: > 60 µM (not active)

Cc1ccc(-n2cccc2C(=S)N=P(N(C)C)(N(C)C)N(C)C)cc1
EC50 [7]: 0.148 µM (active)
CC50 [6]: > 40 µM (active)
AC50 (INS1): 6.81 µM (active)
EC50 [8]: > 30 µM (not active)

CNC(=O)OCc1nc(SC)n(C)c1COC(=O)NC
GI50 (P388): 75 µM (inactive)
GI50 (P388/ADR): 147 µM (inactive)
GI50 (SN12K1): 115 µM (inactive)

COc1cccc(NC(=O)c2cc([N+](=O)[O-])ccc2NC(=O)CNCC2CCCO2)c1 (stereo not given)
IC50 (Fatty acid synthase [1]): 12.3 µM (active)
IC50 (Fatty acid synthase [2]): 13.1 µM (active)

Cc1ccc(CNc2ccc3c(c2)nc(C)n3C)cc1
EC50 (cells [4]): 34.6 µM (active)
EC50 (cells [5]): > 350 µM (not active)

Oc1ccc(/C=N/NC(=S)NC2CC3CCC2C3)cc1 (stereo not given)
EC50 (cells [4]): > 350 µM (not active)
EC50 (cells [5]): > 350 µM (not active)

CC(C)CCCCCCCCCCCCC(=O)NCC(=O)NC1C(C)OC(Nc2ncnc3c2ncn3C)C(O)C1O (stereo not given)
GI50 (P388): 6.03 µM (inactive)
GI50 (P388/ADR): > 100 µM (inactive)
GI50 (SN12K1): 7.66 µM (inactive)

COc1ccc2c(c1)OC[C@H]1[C@H]2N2C(=O)c3cc(OC)ccc3NC(=O)[C@@]2(C)[C@H]1c1ccccc1
AC50 [9]: 16.1 µM (active)
IC50 (Fatty acid synthase [1]): 12.7 µM (active)
IC50 (Fatty acid synthase [2]): 13.7 µM (active)
